According to patent US6774220B1, “Compounds having lectinic properties and their biological applications” (Association pour le Développement de la Biothérapie …, priority 1995, dated 2004):

Tests used:
[1] = test system: Ost. Sarc. ESS (SCLs excreted by the osteogenic sarcoma ESS); assay: Antibody titre against SCL excreted by osteogenic sarcoma ESS; assay type: binding
From the text: (§1) By operating according to standard techniques, the formation of antibodies against the SEQ ID NO: 5 peptides or SEQ ID NO:6 is induced. The specific characters of these antibodies is set out in Table 7.

[2] = molecular target: oligopeptide 81-95 (SEQ ID NO: 6) (Homo sapiens, UniProt P08729); assay: Antibody titre against oligopeptide antigen 81-95; assay type: binding
From the text: as §1

[3] = molecular target: oligopeptide 41-55 (SEQ ID NO: 5) (Homo sapiens, UniProt P08729); assay: Antibody titre against oligopeptide antigen 41-55; assay type: binding
From the text: as §1

murine sarcolectin = assay: Action of simple sugars on the agglutination of cells by sarcolectin; assay type: cell-based, Swiss mice; settings: in the presence of 2 agglutinating units of murine sarcolectin; H9 cells
Experimental: A wide variety of cells originating either from rodents or from primates was tested. Agglutination is obtained by suspending the cells in an MEM medium in the absence of serum. The test may be carried out in two ways, either in the presence of a sarcolectin dilution range in a base 2 geometric progression, by identifying the concentration at which 50% of the cells are agglutinated, or by identifying the affinity of the various sugars for the cell receptors.
In the example shown, murine sarcolectin originating from the ascitic fluid of Swiss mice grafted with Crocker TG180 sarcoma contains 32 units agglutinating the H9 cells which originate from a T lymphoma, fixed by 10% formaldehyde.
The table below illustrates the affinity of the receptors for the various sugars in the presence of 2 agglutinating units.

T (lympho) cells = assay: Stimulation over 24 hours of the synthesis of DNA in T (lympho) cells; assay type: cell-based
Experimental: XI Stimulation over 24 hours of the synthesis of DNA in T (lympho) cells

TG-180 tumour cells = assay: Antitumour action on grafted TG-180 ascitic tumour
Experimental: In order to test the antitumour capacity of SCL inhibiting sugars, TG-180 tumour cells originating from a tumour resistant to chemical metabolic inhibitors was grafted. In a concentration of 3×10^6 cells injected i.p. into 20 gr Swiss mice, an ascitic tumour is obtained which is detectable in 10 days and kills practically 100% of the animals in 21-25 days.
In parallel series, the various groups of animals were treated 3 days after inoculation, either with a specific sugar (glucosamine, lactose, galacturonate, N.A.N.A., neuramine-lactose) in a 5 to 10% solution, the sugar concentration being 100 mM, or with the same treatment in association with an injection of immuno-stimulant (extract of corynebacterium parvum, Merieux, France), in a dose of 200 g/mouse, or interferon, or both.
4 groups of mice per experiment were used.
They are assessed by the percentage of tumours that appeared on the 10th day, the mean survival time of the animals (MST) in. days, and the final survival (as a percentage).

[4] = test system: encephalomyocarditis virus (EMC); assay: Protection of IFN against the encephalomyocarditis virus in Swiss mice, with SCL inhibiting sugars; assay type: in vivo; settings: EMC virus i.p.
Experimental: The model used is the encephalomyocarditis virus (EMC) which kills mice in practically all cases after rather varying but relatively short incubation periods.
Male mice (average weight: […], aged 8 to 10 weeks) were injected i.p. with sodium galacturonate, glucosamine and N-acetylneuraminic acid (5 to 10% solutions containing 100 mM sugar). 24 hours afterwards, one hundred lethal doses (50%) of EMC virus are injected by the same route. After one hour, murine interferon is injected (in a dose of 20,000 units in 0.5 ml). Table 3 gives the number of animals surviving out of the total tested, the percentage and statistical significance.

[5] = IL2 (100 u) +SCL + inhibitor (NANA 0.75 mmol.; oligo 41-55 3 μγ/ml)
[6] = single agent (+MEM, or IFN in reference group)

41-55 (GLGASRPRVAVRSAY)
antibody titre, Ost. Sarc. ESS as antigen [1]: >12 800
antibody titre, oligopeptide 81-95 as antigen [2]: <200
antibody titre, oligopeptide 41-55 as antigen [3]: >12 600

OC[C@H]1O[C@@H](O[C@H]2[C@H](O)[C@@H](O)[C@H](O)O[C@@H]2CO)[C@H](O)[C@@H](O)[C@H]1O [β lactose]
affinity (murine sarcolectin): 0.25 mM

81-95 (DPFSQRVRQEESEQI)
antibody titre, oligopeptide 81-95 as antigen [2]: >12 800
antibody titre, oligopeptide 41-55 as antigen [3]: <200

OC[C@H]1O[C@@H](O[C@H]2[C@H](O)[C@@H](O)[C@@H](O)O[C@@H]2CO)[C@H](O)[C@@H](O)[C@H]1O [α lactose]
affinity (murine sarcolectin): 0.125 mM

OC[C@H]1OC(O)[C@H](O)[C@@H](O)[C@H]1O (stereo partly drawn) [D galactose]
affinity (murine sarcolectin): 0.28 mM

CC(=O)N[C@H]1[C@H]([C@H](O)[C@H](O)CO)OC(O)(C(=O)O)C[C@@H]1O (stereo partly drawn) [N.A.N.A, N-acetylneuraminic acid]
effect on the stimulation of DNA synthesis by SCL (in words) (T (lympho) cells; 24 hours): inhibited
synthesis of DNA, EXP. N° 1 (T (lympho) cells; [5]): 4,657 ± 214.78
synthesis of DNA, EXP. N° 2 (T (lympho) cells; [5]): 27,133 ± 1771
Final survival (%) (TG-180 tumour cells; +CP): (53) %
Final survival, Number (TG-180 tumour cells; +CP): 8
MST (mean survival time) (TG-180 tumour cells; +CP): 69 ± 12 days
Tumours on 10th day (%) (TG-180 tumour cells; +CP): 40%
Tumours on 10th day, number (TG-180 tumour cells; +CP): 6
Final survival (%) (TG-180 tumour cells; +CP +IFN): (36) %
Final survival, Number (TG-180 tumour cells; +CP +IFN): 11
MST (mean survival time) (TG-180 tumour cells; +CP +IFN): 70 ± 12 days
Tumours on 10th day (%) (TG-180 tumour cells; +CP +IFN): 43%
Tumours on 10th day, number (TG-180 tumour cells; +CP +IFN): 13
Final survival (%) (TG-180 tumour cells; +IFN): (13) %
Final survival, Number (TG-180 tumour cells; +IFN): 4
MST (mean survival time) (TG-180 tumour cells; +IFN): 39 ± 12 days
Tumours on 10th day (%) (TG-180 tumour cells; +IFN): 16%
Tumours on 10th day, number (TG-180 tumour cells; +IFN): 5
Final survival (%) (TG-180 tumour cells; agent alone): (0) %
Final survival, Number (TG-180 tumour cells; agent alone): 0
MST (mean survival time) (TG-180 tumour cells; agent alone): 24 ± 6 days
Tumours on 10th day (%) (TG-180 tumour cells; agent alone): 34%
Tumours on 10th day, number (TG-180 tumour cells; agent alone): 9
number of animals surviving out of the total number tested [4, 6]: 0/15
percentage surviving [4, 6]: 0%
number of animals surviving out of the total number tested ([4]; sugar +IFN (20,000 units)): 8/15c
percentage surviving ([4]; sugar +IFN (20,000 units)): 53%
affinity (murine sarcolectin): 0.0075 mM
